Results reported in ChEMBL document CHEMBL1152465, “Comparative evaluation of the inhibitory activities of a series of pyrimidinedione congeners that inhibit human immunodeficiency virus types 1 and 2” (Antimicrob Agents Chemother, 2008).
The source made the active and inactive calls.

How the values were obtained:
[1] = Therapeutic index, ratio of TC50 for human CEM-SS cells to EC50 for HIV1 RF infected in human CEM-SS cells; type: cell-based; conditions: read-out: TI
[2] = Cytotoxicity against human CEM-SS cells by XTT assay; type: cell-based; conditions: read-out: TC50 (the source's name)
[3] = biological target: Human immunodeficiency virus type 1 reverse transcriptase (Human immunodeficiency virus 1, UniProt Q72547, K103N); assay: Inhibition of HIV1 reverse transcriptase K103N mutant assessed as 32P-labeled GMP incorporation into nascent DNA strand
[4] = test system: Human immunodeficiency virus 2; assay: Inhibition of HIV2 reverse transcriptase
[5] = Therapeutic index, ratio of TC50 for human CEM-SS cells to EC50 for HIV2 ROD infected in human CEM-SS cells; type: cell-based; conditions: for selectivity ratio: CEM-SS cells, read-out: TI; for TI: cem-ss
[6] = test system: Human immunodeficiency virus 2; assay: Inhibition of HIV2 reverse transcriptase assessed as 32P-labeled GMP incorporation into nascent DNA strand at highest concentration
[7] = test system: Human immunodeficiency virus 2; assay: Antiviral activity against HIV2 assessed as inhibition of viral replication treated at time points after viral entry into host cells; type: functional, organism-based
[8] = biological target: Human immunodeficiency virus type 1 reverse transcriptase (Human immunodeficiency virus 1, UniProt Q72547); assay: Inhibition of wild type HIV1 reverse transcriptase assessed as 32P-labeled GMP incorporation into nascent DNA strand
[9] = Cytotoxicity against human HeLa cells expressing CD4-LTR by XTT assay; type: cell-based; conditions: read-out: TC50 (the source's name)
[10] = test system: Human immunodeficiency virus 1; assay: Antiviral activity against HIV1 infected in human HeLa cells expressing CD4-LTR assessed as inhibition of viral entry-related beta galactosidase expression treated for 2 hrs followed by drug wash out measured after 48 hrs by MAGI assay; type: functional, organism-based; conditions: Human immunodeficiency virus 1, HeLa
[11] = Therapeutic index, ratio of TC50 human HeLa cells expressing CD4-LTR to EC50 for HIV1 entry inhibition in human HeLa cells expressing CD4-LTR; type: cell-based; conditions: read-out: TI
[12] = test system: Human immunodeficiency virus 1; assay: Antiviral activity against HIV1 RF infected in human CEM-SS cells assessed as inhibition of virus-induced cytopathic effect by XTT assay; type: functional, organism-based; conditions: Human immunodeficiency virus 1, RF
[13] = test system: Human immunodeficiency virus 1; assay: Antiviral activity against HIV1 infected in human CEM-SS cells assessed as inhibition of viral replication and virus-induced cytopathic effect by dose-response curve analysis; type: functional; conditions: Human immunodeficiency virus 1, CEM-SS
[14] = test system: Human immunodeficiency virus 2; assay: Antiviral activity against HIV2 assessed as inhibition of viral single round replication at early time point; type: functional, organism-based
[15] = test system: Human immunodeficiency virus 2; assay: Antiviral activity against HIV2 ROD infected in human CEM-SS cells assessed as inhibition of virus-induced cytopathic effect by XTT assay; type: functional, organism-based, ISOLATE ROD
[16] = Human immunodeficiency virus 2, ISOLATE ROD, CEM-SS, read-out: EC50

Row | SMILES | selectivity ratio [1] | CC50 [2] | IC50 [3] | Activity [4] | selectivity ratio [5] | Activity [6] | Activity [7] | IC50 [8] | CC50 [9] | EC50 [10] | selectivity ratio [11] | EC50 [12] | EC99 [13] | Activity [14] | EC50 [15, 16] | TI [5] | EC50 ([15]; cem-ss)
1 | Cc1cc(C)cc(Oc2c(C(C)C)c(=O)[nH]c(=O)n2CCC2CC=CC2)c1 | 918 | 10.3 µM | 2.3 µM | inactive | 7.3 | inactive | inactive | 0.176 µM | 14.2 µM | 2.24 µM | 6 | 0.02 µM | 1 µM | Active | 1.4 µM | – | –
2 | CC(C)c1c(Sc2ccccc2)n(CC2CC=CC2)c(=O)[nH]c1=O | 1300 | 15.5 µM | > 292 µM | inactive | – | inactive | inactive | 0.244 µM | 25.9 µM | 1.19 µM | 22 | 0.028 µM | 1 µM | Active | – | Not Active | Not Active
3 | CCc1c(Sc2cc(C)cc(C)c2)n(CC2CCCC2)c(=O)[nH]c1=O | 3980 | 222 µM | 10.5 µM | inactive | 70.4 | inactive | inactive | 0.126 µM | 222 µM | 0.14 µM | 1590 | 0.056 µM | 1 µM | Active | 3.2 µM | – | –
4 | Cc1cc(C)cc(Oc2c(C(C)C)c(=O)[nH]c(=O)n2CC2CC=CC2)c1 | 12900 | 200 µM | 1.9 µM | inactive | 11 | inactive | inactive | 0.256 µM | 200 µM | 0.09 µM | 2340 | 0.015 µM | 1 µM | Active | 18.2 µM | – | –
5 | CCc1c(C(=O)c2cc(C)cc(C)c2)n(CC2CCCCC2)c(=O)[nH]c1=O | 20300 | 1100 µM | > 271 µM | inactive | > 362 | inactive | inactive | 0.173 µM | 1090 µM | 0.05 µM | 20200 | 0.054 µM | 1 µM | Active | 3 µM | – | –
6 | CCc1c(Sc2ccccc2)n(CC2CC=CC2)c(=O)[nH]c1=O | 262 | 20.7 µM | 17.1 µM | inactive | – | inactive | inactive | 0.366 µM | 30.3 µM | 0.02 µM | 1250 | 0.15 µM | 1 µM | Active | – | Not Active | Not Active
7 | Cc1cc(C)cc(C(=O)c2c(C(C)C)c(=O)[nH]c(=O)n2CC2CCCC2)c1 | 5080 | 15.2 µM | 15.3 µM | inactive | 40 | inactive | inactive | 0.147 µM | 16.6 µM | 0.08 µM | 203 | 0.0035 µM | 1 µM | Active | 0.4 µM | – | –
8 | Cc1cc(C)cc(Sc2c(C(C)C)c(=O)[nH]c(=O)n2CCC2CCCC2)c1 | 92 | 14.2 µM | 205 µM | inactive | – | inactive | inactive | 0.233 µM | 15.4 µM | 1.28 µM | 12 | 0.15 µM | 1 µM | Active | – | Not Active | Not Active
9 | CC(C)c1c(C(=O)c2ccccc2)n(CC2CC=CC2)c(=O)[nH]c1=O | 200000 | 1180 µM | > 295 µM | inactive | > 65.5 | inactive | inactive | 0.18 µM | 1180 µM | 0.8 µM | 1480 | 0.0059 µM | 1 µM | Active | 18.1 µM | – | –
10 | CCc1c(Oc2ccccc2)n(CC2CC=CC2)c(=O)[nH]c1=O | 127 | 76.2 µM | 48.3 µM | inactive | 2.4 | inactive | inactive | 2.62 µM | 76.9 µM | 0.15 µM | 527 | 0.61 µM | 1 µM | Active | 32 µM | – | –
11 | Cc1cc(C)cc(C(=O)c2c(C(C)C)c(=O)[nH]c(=O)n2CCC2CC=CC2)c1 | 2390 | 13.9 µM | 1.7 µM | inactive | 23 | inactive | inactive | 0.011 µM | 24.9 µM | 0.82 µM | 30 | 0.015 µM | 1 µM | Active | 0.6 µM | – | –
12 | CCc1c(C(=O)c2cc(C)cc(C)c2)n(CCC2CCCC2)c(=O)[nH]c1=O | 2580 | 25.8 µM | > 271 µM | inactive | – | inactive | inactive | 0.119 µM | 22.2 µM | 0.02 µM | 1230 | 0.01 µM | 1 µM | Active | – | Not Active | Not Active
13 | CCc1c(C(=O)c2cc(C)cc(C)c2)n(CCC2=CCCC2)c(=O)[nH]c1=O | 20100 | 1100 µM | > 273 µM | inactive | > 58.6 | inactive | inactive | 2 µM | 1100 µM | 2.6 µM | 421 | 0.055 µM | 1 µM | Active | 18.6 µM | – | –
14 | Cc1cc(C)cc(Oc2c(C(C)C)c(=O)[nH]c(=O)n2CCC2=CCCC2)c1 | 90 | 17.1 µM | 176 µM | inactive | – | inactive | inactive | 1.54 µM | 17.4 µM | 2.7 µM | 6 | 0.19 µM | 1 µM | Active | – | Not Active | Not Active
15 | CCc1c(C(=O)c2cc(C)cc(C)c2)n(CC2CCC2)c(=O)[nH]c1=O | 60700 | 850 µM | 4.38 µM | inactive | 190 | inactive | inactive | 2.4 µM | 850 µM | 0.06 µM | 14500 | 0.014 µM | 1 µM | Active | 4.5 µM | – | –
16 | CCc1c(Oc2cc(C)cc(C)c2)n(CC2=CCCC2)c(=O)[nH]c1=O | 4080 | 62.9 µM | 0.22 µM | inactive | 47.6 | inactive | inactive | 0.122 µM | 62.9 µM | 0.009 µM | 7280 | 0.016 µM | 1 µM | Active | 1.3 µM | – | –
17 | Cc1cc(C)cc(Sc2c(C(C)C)c(=O)[nH]c(=O)n2CC2CCCC2)c1 | 1260 | 7 µM | > 268 µM | inactive | – | inactive | inactive | 0.129 µM | 10.6 µM | 0.27 µM | 39 | 0.011 µM | 1 µM | Active | – | Not Active | Not Active
